According to patent US20040054009A1, “(BIS)sulfonamide derivatives” (priority 2002, published 2004):

Key:
human GluR4 = human GluR4 (Homo sapiens, UniProt P48058); experiment: whole cell voltage clamp electrophysiological characterization of AMPA receptor potentiators (response to 100 μM glutamate); format: cell-based; conditions: HEK293 cells stably expressing human GluR4, voltage-clamped at −60 mV, Hill equation fit
Description: In another test, HEK293 cells stably expressing human GluR^4 (obtained as described in European Patent Application Publication No. EP-A1-0583917) were used in the electro-physiological characterization of AMPA receptor potentiators. The extracellular recording solution contained (in mM): 140 NaCl, 5 KCl, 10 HEPES, 1 MgCl2, 2 CaCl2, 10 glucose, pH=7.4 with NaOH, 295 mOsm kg^−1. The intracellular recording solution contained (in mM): 140 CsCl, 1 MgCl2, 10 HEPES, (N-[2-hydroxyethyl]piperazine-N^1-[2-ethanesulfonic acid]) 10 EGTA (ethylene-bis(oxyethylene-nitrilo)tetraacetic acid), pH=7.2 with CsOH, 295 mOsm kg^−1. […] Once stable baseline responses to this agonist challenge were obtained, the potentiator was introduced in the extracellular solution bathing the cells at the lowest concentration, and the response to 100 μM glutamate in the presence of this concentration of potentiator was determined.
The concentration of the potentiator, both in the bathing solution and co-applied with the agonist, was increased in half log units until the maximum potentiation was seen. […] Once the control responses to the agonist challenge were re-established, the potentiation of these responses by 100 μM cyclothiazide was determined by its inclusion in both the bathing solution and the agonist-containing solution. […]

human GluR4B receptor = target: T1, human GluR4B receptor (Homo sapiens, UniProt P48058); experiment: potentiation of agonist-induced excitability, HEK cells expressing human GluR4B (Fluo3-AM fluorescence, glutamate); format: cell-based; conditions: human GluR4B receptor expressed in HEK 293 cells
T1 construct: expressed in transfected cells
Procedure: 96 well plates containing confluent monolayers of HEK cells stably expressing human GluR^4B (obtained as described in European Patent Application Publication Number EP-A1-583917) were prepared. The tissue culture medium in the wells was then discarded, and the wells were each washed once with 200 μl of 5NaCa buffer (glucose, 10 mM, sodium chloride, 138 mM, magnesium chloride, 1 mM, potassium chloride, 5 mM, calcium chloride, 5 mM, N-[2-hydroxyethyl]-piperazine-N-[2-ethanesulfonic acid], 10 mM, to pH 7.1 to 7.3). The plates were then incubated for 60 minutes in the dark with 20 μM Fluo3-AM dye (obtained from Molecular Probes Inc, Eugene, Oreg.) in 5 NaCa buffer in each well. After the incubation, each well was washed once with 100 μl 5NaCa buffer, 200 μl of 5NaCa buffer was added and the plates were incubated for 30 minutes. […]
Each test was then performed as follows. […] A first reading was then taken using a FLUOROSKAN II fluorimeter (Obtained from Labsystems, Needham Heights, Mass., USA, a Division of Life Sciences International Plc). […] A second reading was then taken using the fluorimeter. The plate was then left in the fluorimeter for 5 minutes, and a third reading was taken. 15 μl of 400 μM glutamate solution was then added to each well (final glutamate concentration 100 μM), and a fourth reading was taken immediately. Approximately three minutes later, a fifth reading was taken. […]

Chain of human GluR4 (P48058 21-902): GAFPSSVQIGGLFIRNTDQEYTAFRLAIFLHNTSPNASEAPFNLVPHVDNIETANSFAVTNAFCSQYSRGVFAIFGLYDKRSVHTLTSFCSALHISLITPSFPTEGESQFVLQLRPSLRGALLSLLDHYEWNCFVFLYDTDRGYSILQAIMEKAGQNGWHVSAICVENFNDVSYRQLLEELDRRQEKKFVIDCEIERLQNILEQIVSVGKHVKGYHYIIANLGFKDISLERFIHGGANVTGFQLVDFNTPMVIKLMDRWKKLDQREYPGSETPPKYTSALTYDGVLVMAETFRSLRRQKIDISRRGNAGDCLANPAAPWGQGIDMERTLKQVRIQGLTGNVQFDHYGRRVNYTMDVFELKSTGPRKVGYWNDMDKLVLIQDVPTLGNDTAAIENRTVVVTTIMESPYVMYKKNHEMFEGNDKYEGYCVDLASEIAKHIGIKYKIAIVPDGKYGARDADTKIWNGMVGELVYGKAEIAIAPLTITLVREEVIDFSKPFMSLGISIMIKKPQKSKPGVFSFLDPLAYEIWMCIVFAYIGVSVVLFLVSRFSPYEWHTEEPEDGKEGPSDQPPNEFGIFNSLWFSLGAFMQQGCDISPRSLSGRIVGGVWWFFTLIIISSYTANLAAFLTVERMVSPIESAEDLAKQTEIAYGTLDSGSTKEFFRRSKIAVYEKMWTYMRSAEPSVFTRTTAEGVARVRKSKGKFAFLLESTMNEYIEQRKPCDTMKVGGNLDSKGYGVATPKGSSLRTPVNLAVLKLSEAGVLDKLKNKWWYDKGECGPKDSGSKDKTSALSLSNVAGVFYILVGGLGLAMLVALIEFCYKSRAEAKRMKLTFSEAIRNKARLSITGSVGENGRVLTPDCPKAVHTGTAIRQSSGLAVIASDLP
T1 sequence (P48058 21-902): as above

SMILES	melting point	other results
CC(CNS(=O)(=O)C(C)C)c1ccc(-c2ccsc2)cc1 (stereo not shown) [Example 28]	–	EC50 (human GluR4): 230 ± 59 nM
CC(C)S(=O)(=O)NCC1(c2ccc(C(C)(C)C)cc2)CC1 [Example 25, N-1-(4-t-butylphenyl)cyclopropylmethyl 2-propanesulfonamide]	87 to 89.5 °C	–
CC(C)(C)c1ccc(C2(CNS(=O)(=O)C(F)(F)F)CC2)cc1 [Example 24, N−1-(4-t-butylphenyl)cyclopropylmethyl Trifluoromethanesulfonamide]	82 to 84 °C	–
NS(=O)(=O)c1cc2c(cc1Cl)NC(C1CC3C=CC1C3)NS2(=O)=O (stereo not shown) [cyclothiazide]	–	potentiation of agonist-induced excitability of human GluR4B receptor (human GluR4B receptor): potentiate agonist-induced excitability
